Assay results: US6521814B1, “Use of ligands for treatment of diseases responsive to retinoids” (Institut National de la Santa et de la Recherche Medicale, priority 1997, dated 2003)

Tests used:
Type in all cases: cell-based, murine
RARα−/− F9 cells [1] = assay: Morphological differentiation of F9 cell aggregates into visceral endoderm (VE)-like cells (morphology, RT-PCR of markers); design: key to proportion of outer layer of cells displaying VE morphology: +++: more than 80%; ++: 50-80%; +: 10-50%; ±: not more than 10%; (−): no visible effect; settings: 10 d
Text: (§1) Similarly, after 10 d of treatment, >80% of the outer layer of RARα^−/− and RXRα^−/−/RARα^−/− cell aggregates differentiated into VE-like cells, which were indistinguishable from those of WT and RXRα^−/− cells (FIG. 23A, compare f with panels b and d; and Table 9). […] To exclude the possibility that this very poor differentiation of the RXRα^−/−/RARγ^−/− cells could be due to some clonal variation, rather than the presence of the RXRα-null mutation in the RARγ-null background, we expressed the RXRα cDNA in RXRα^−/−/RARγ^−/− cells.
(§2) F9 cells were cultured and induced to differentiate into primitive, parietal and visceral endoderm-like cells as previously described (Boylan, J., et al., Proc. Natl. Acad. Sci. USA 90:9601-9605 (1993); Clifford, J., et al., EMBO J. 15:4142-4155 (1996)).
(§3) RNA preparation, RT-PCR, and Southern blotting were performed as previously described (Bouillet, P., et al., Dev. Biol. 170:420-433 (1995); Roy, B., et al., Mol. Cell. Biol. 15:6481-6487 (1995)). The PCR primers and end-labeled oligonucleotide probes for collagen IVα1, laminin B1, α-fetoprotein (AFP), and 36B4, were described previously (Clifford, J., et al ., EMBO J. 15:4142-4155 (1996)). Transcript levels were quantified using a BAS 2000 bioimaging analyzer (Fuji Ltd., Tokyo, Japan), and were normalized to the corresponding 36B4 signals.

WT F9 cells [2] = assay: as above; design: key to proportion of outer layer of cells displaying VE morphology: +++: more than 80%; ++: 50-80%; +: 10-50%; ±: not more than 10%; (−): no visible effect; settings: WT, 10 d
Text: as §1, §2, §3

RARγ−/− F9 cells [3] = assay: as above; design: key to proportion of outer layer of cells displaying VE morphology: +++: more than 80%; ++: 50-80%; +: 10-50%; ±: not more than 10%; (−): no visible effect; settings: RARγ−/−, 10 d
Experimental: as §2, §3

RARα−/− F9 cells [4] = assay: Proliferation of F9 cells in monolayer culture (cell counting, [3H]thymidine incorporation, cell cycle FACS); settings: 6 d
Experimental: (§4) Cells were plated in triplicate 3-cm culture wells (5×10^2 cells per well), and cell counting experiments were performed as previously described (Clifford, J., et al., EMBO J. 15:4142-4155 (1996)). [^3H]Thymidine incorporation assays were performed essentially as described (Clifford, J., et al., EMBO J. 15:4142-4155 (1996)), with the following modifications. […] The cell cycle profile of WT and mutant cells was determined as previously described (Clifford, J., et al. EMBO J. 15:4142-4155 (1996)).

RARγ−/− F9 cells [5] = assay: as above; settings: 6 d
Experimental: as §4

WT F9 cells [6] = assay: as above; settings: 6 d
Experimental: as §4

RXRα−/− F9 cells [7] = assay: as above; settings: 6 d
RXRα−/−/RARα−/− F9 cells [8] = assay: as above; settings: 6 d
RXRα−/−/RARγ−/− F9 cells = assay: as above; settings: 6 d
RARγ−/− F9 cells [9] = assay: Apoptosis of F9 cells (Hoechst 33258 staining, FACS); settings: 6 d
Experimental: (§5) Apoptosis was analyzed by both Hoechst staining of nuclei and FACS® analysis, as previously described (Clifford, J., et al., EMBO J. 15:4142-4155 (1996)).

WT F9 cells [10] = assay: as above; settings: 6 d
Experimental: as §5

RARα−/− F9 cells [11] = assay: as above; design: key: (−): no visible effect; settings: 6 d
Experimental: as §5

RXRα−/− F9 cells [12] = assay: Morphological differentiation of F9 cell aggregates into visceral endoderm (VE)-like cells (morphology, RT-PCR of markers); settings: 10 d
Text: (§6) Transcript levels were quantified using a BAS 2000 bioimaging analyzer (Fuji Ltd., Tokyo, Japan), and were normalized to the corresponding 36B4 signals.

RXRα−/−/RARα−/− F9 cells [13] = assay: as above; settings: RXRα−/−/RARα−/−, 10 d
Text: as §6

RXRα−/− F9 cells [14] = assay: Apoptosis of F9 cells (Hoechst 33258 staining, FACS); settings: 100 nM, 6 d
RXRα−/−/RARα−/− F9 cells [15] = assay: as above; settings: 100 nM, 6 d

CC1(C)C(=O)C(C)(C)c2cc(C(=O)Nc3ccc(C(=O)O)cc3)ccc21 [RARα agonist]
proportion of outer layer of cells displaying VE morphology (RARα−/− F9 cells [1]; 100 nM): (−)
proportion of outer layer of cells displaying VE morphology (WT F9 cells [2]; 10 nM): (−)
proportion of outer layer of cells displaying VE morphology (WT F9 cells [2]; 100 nM): (−)
proportion of outer layer of cells displaying VE morphology (RARγ−/− F9 cells [3]; 10 nM): (−)
proportion of outer layer of cells displaying VE morphology (RARγ−/− F9 cells [3]; 100 nM): ± (not more than 10%)
number of cells in percent relative to cells grown in 0.1% ethanol (RARα−/− F9 cells [4]; 10 nM): 100%
number of cells in percent relative to cells grown in 0.1% ethanol (RARα−/− F9 cells [4]; 100 nM): 100%
number of cells in percent relative to cells grown in 0.1% ethanol (RARγ−/− F9 cells [5]; 10 nM): 100%
number of cells in percent relative to cells grown in 0.1% ethanol (RARγ−/− F9 cells [5]; 100 nM): 100%
number of cells in percent relative to cells grown in 0.1% ethanol (WT F9 cells [6]; 10 nM): 100%
number of cells in percent relative to cells grown in 0.1% ethanol (WT F9 cells [6]; 100 nM): 100%
number of cells in percent relative to cells grown in 0.1% ethanol (RXRα−/− F9 cells [7]; 10 nM): 100%
number of cells in percent relative to cells grown in 0.1% ethanol (RXRα−/− F9 cells [7]; 100 nM): 100%
number of cells in percent relative to cells grown in 0.1% ethanol (RXRα−/−/RARα−/− F9 cells [8]; 10 nM): 100%
number of cells in percent relative to cells grown in 0.1% ethanol (RXRα−/−/RARα−/− F9 cells [8]; 100 nM): 100%
number of cells in percent relative to cells grown in 0.1% ethanol (RXRα−/−/RARγ−/− F9 cells; 10 nM): 124%
number of cells in percent relative to cells grown in 0.1% ethanol (RXRα−/−/RARγ−/− F9 cells; 100 nM): 143%
proportion of apoptotic nuclei and subcellular fragments (Hoechst 33258) (RARγ−/− F9 cells [9]; 100 nM): (−)
proportion of apoptotic nuclei and subcellular fragments (Hoechst 33258) (WT F9 cells [10]; 100 nM): (−)
proportion of apoptotic nuclei and subcellular fragments (Hoechst 33258) (RARα−/− F9 cells [11]; 100 nM): (−)

CC1(C)CC=C(c2ccccc2)c2cc(/C=C/c3ccc(C(=O)O)cc3)ccc21 [RARβ agonist]
proportion of outer layer of cells displaying VE morphology (RARα−/− F9 cells [1]; 500 nM): (−)
proportion of outer layer of cells displaying VE morphology (WT F9 cells [2]; 500 nM): (−)
proportion of outer layer of cells displaying VE morphology (RARγ−/− F9 cells [3]; 500 nM): ± (not more than 10%)
number of cells in percent relative to cells grown in 0.1% ethanol (RARα−/− F9 cells [4]; 500 nM): 100%
number of cells in percent relative to cells grown in 0.1% ethanol (RARγ−/− F9 cells [5]; 50 nM): 100%
number of cells in percent relative to cells grown in 0.1% ethanol (RARγ−/− F9 cells [5]; 500 nM): 100%
number of cells in percent relative to cells grown in 0.1% ethanol (WT F9 cells [6]; 50 nM): 100%
number of cells in percent relative to cells grown in 0.1% ethanol (WT F9 cells [6]; 500 nM): 100%
number of cells in percent relative to cells grown in 0.1% ethanol (RXRα−/− F9 cells [7]; 50 nM): 100%
number of cells in percent relative to cells grown in 0.1% ethanol (RXRα−/− F9 cells [7]; 500 nM): 100%
number of cells in percent relative to cells grown in 0.1% ethanol (RXRα−/−/RARα−/− F9 cells [8]; 500 nM): 100%
number of cells in percent relative to cells grown in 0.1% ethanol (RXRα−/−/RARγ−/− F9 cells; 500 nM): 120%
proportion of apoptotic nuclei and subcellular fragments (Hoechst 33258) (RARγ−/− F9 cells [9]; 500 nM): (−)
proportion of apoptotic nuclei and subcellular fragments (Hoechst 33258) (WT F9 cells [10]; 500 nM): (−)
proportion of apoptotic nuclei and subcellular fragments (Hoechst 33258) (RARα−/− F9 cells [11]; 500 nM): (−)

CC1(C)CCC(C)(C)c2cc([C@@H](O)C(=O)Nc3ccc(C(=O)O)cc3F)ccc21 [RARγ agonist]
proportion of outer layer of cells displaying VE morphology (RARα−/− F9 cells [1]; 1 nM): (−)
proportion of outer layer of cells displaying VE morphology (RARα−/− F9 cells [1]; 10 nM): +++ (more than 80%)
proportion of outer layer of cells displaying VE morphology (RARα−/− F9 cells [1]; 100 nM): +++ (more than 80%)
proportion of outer layer of cells displaying VE morphology (WT F9 cells [2]; 1 nM): (−)
proportion of outer layer of cells displaying VE morphology (WT F9 cells [2]; 10 nM): ± (not more than 10%)
proportion of outer layer of cells displaying VE morphology (WT F9 cells [2]; 100 nM): +++ (more than 80%)
proportion of outer layer of cells displaying VE morphology (RXRα−/− F9 cells [12]; 10 nM): + (10-50%)
proportion of outer layer of cells displaying VE morphology (RXRα−/− F9 cells [12]; 100 nM): +++ (more than 80%)
proportion of outer layer of cells displaying VE morphology (RXRα−/−/RARα−/− F9 cells [13]; 10 nM): + (10-50%)
proportion of outer layer of cells displaying VE morphology (RXRα−/−/RARα−/− F9 cells [13]; 100 nM): +++ (more than 80%)
proportion of outer layer of cells displaying VE morphology (RARγ−/− F9 cells [3]; 1 nM): (−)
proportion of outer layer of cells displaying VE morphology (RARγ−/− F9 cells [3]; 10 nM): (−)
proportion of outer layer of cells displaying VE morphology (RARγ−/− F9 cells [3]; 100 nM): (−)
number of cells in percent relative to cells grown in 0.1% ethanol (RARα−/− F9 cells [4]; 10 nM): 100%
number of cells in percent relative to cells grown in 0.1% ethanol (RARα−/− F9 cells [4]; 100 nM): 30%
number of cells in percent relative to cells grown in 0.1% ethanol (RARγ−/− F9 cells [5]; 10 nM): 100%
number of cells in percent relative to cells grown in 0.1% ethanol (RARγ−/− F9 cells [5]; 100 nM): 100%
number of cells in percent relative to cells grown in 0.1% ethanol (WT F9 cells [6]; 10 nM): 100%
number of cells in percent relative to cells grown in 0.1% ethanol (WT F9 cells [6]; 100 nM): 37%
number of cells in percent relative to cells grown in 0.1% ethanol (RXRα−/− F9 cells [7]; 10 nM): 100%
number of cells in percent relative to cells grown in 0.1% ethanol (RXRα−/− F9 cells [7]; 100 nM): 51%
number of cells in percent relative to cells grown in 0.1% ethanol (RXRα−/−/RARα−/− F9 cells [8]; 10 nM): 100%
number of cells in percent relative to cells grown in 0.1% ethanol (RXRα−/−/RARα−/− F9 cells [8]; 100 nM): 49%
number of cells in percent relative to cells grown in 0.1% ethanol (RXRα−/−/RARγ−/− F9 cells; 10 nM): 100%
number of cells in percent relative to cells grown in 0.1% ethanol (RXRα−/−/RARγ−/− F9 cells; 100 nM): 100%
proportion of apoptotic nuclei and subcellular fragments (Hoechst 33258) (RARγ−/− F9 cells [9]; 100 nM): (−)
proportion of apoptotic nuclei and subcellular fragments (Hoechst 33258) (WT F9 cells [10]; 10 nM): (−)
proportion of apoptotic nuclei and subcellular fragments (Hoechst 33258) (WT F9 cells [10]; 100 nM): + (>1-10%)
proportion of apoptotic nuclei and subcellular fragments (Hoechst 33258) (RXRα−/− F9 cells [14]): ±* (asterisks less than that in combination with 1 μM panRXR agonist)
proportion of apoptotic nuclei and subcellular fragments (Hoechst 33258) (RARα−/− F9 cells [11]; 10 nM): (−)
proportion of apoptotic nuclei and subcellular fragments (Hoechst 33258) (RARα−/− F9 cells [11]; 100 nM): + (>1-10%)
proportion of apoptotic nuclei and subcellular fragments (Hoechst 33258) (RXRα−/−/RARα−/− F9 cells [15]): ±* (asterisks less than that in combination with 1 μM panRXR agonist)
